From patent US10189853B2, “Conformationally restricted 4-substituted-2,6-dimethylfuro[2,3-d]pyrimidines as anti-tumor agents” (DUQUESNE UNIVERSITY OF THE HOLY SPIRIT, priority 2014, dated 2019)
Each block holds one compound with its values, some of them ahead of it.

Columns and labels:
[1] = target: EGFR (Homo sapiens (Human), UniProt P00533); test: EGFR kinase inhibition, phosphotyrosine ELISA cytoblot; format: cell-based; conditions: A431 cells
[2] = target: VEGFR-2 (Homo sapiens (Human), UniProt P35968); test: VEGFR-2 kinase inhibition, phosphotyrosine ELISA cytoblot; format: cell-based; conditions: U251 cells, phosphotyrosine ELISA
Sequence of VEGFR-2 (P35968 20-1356): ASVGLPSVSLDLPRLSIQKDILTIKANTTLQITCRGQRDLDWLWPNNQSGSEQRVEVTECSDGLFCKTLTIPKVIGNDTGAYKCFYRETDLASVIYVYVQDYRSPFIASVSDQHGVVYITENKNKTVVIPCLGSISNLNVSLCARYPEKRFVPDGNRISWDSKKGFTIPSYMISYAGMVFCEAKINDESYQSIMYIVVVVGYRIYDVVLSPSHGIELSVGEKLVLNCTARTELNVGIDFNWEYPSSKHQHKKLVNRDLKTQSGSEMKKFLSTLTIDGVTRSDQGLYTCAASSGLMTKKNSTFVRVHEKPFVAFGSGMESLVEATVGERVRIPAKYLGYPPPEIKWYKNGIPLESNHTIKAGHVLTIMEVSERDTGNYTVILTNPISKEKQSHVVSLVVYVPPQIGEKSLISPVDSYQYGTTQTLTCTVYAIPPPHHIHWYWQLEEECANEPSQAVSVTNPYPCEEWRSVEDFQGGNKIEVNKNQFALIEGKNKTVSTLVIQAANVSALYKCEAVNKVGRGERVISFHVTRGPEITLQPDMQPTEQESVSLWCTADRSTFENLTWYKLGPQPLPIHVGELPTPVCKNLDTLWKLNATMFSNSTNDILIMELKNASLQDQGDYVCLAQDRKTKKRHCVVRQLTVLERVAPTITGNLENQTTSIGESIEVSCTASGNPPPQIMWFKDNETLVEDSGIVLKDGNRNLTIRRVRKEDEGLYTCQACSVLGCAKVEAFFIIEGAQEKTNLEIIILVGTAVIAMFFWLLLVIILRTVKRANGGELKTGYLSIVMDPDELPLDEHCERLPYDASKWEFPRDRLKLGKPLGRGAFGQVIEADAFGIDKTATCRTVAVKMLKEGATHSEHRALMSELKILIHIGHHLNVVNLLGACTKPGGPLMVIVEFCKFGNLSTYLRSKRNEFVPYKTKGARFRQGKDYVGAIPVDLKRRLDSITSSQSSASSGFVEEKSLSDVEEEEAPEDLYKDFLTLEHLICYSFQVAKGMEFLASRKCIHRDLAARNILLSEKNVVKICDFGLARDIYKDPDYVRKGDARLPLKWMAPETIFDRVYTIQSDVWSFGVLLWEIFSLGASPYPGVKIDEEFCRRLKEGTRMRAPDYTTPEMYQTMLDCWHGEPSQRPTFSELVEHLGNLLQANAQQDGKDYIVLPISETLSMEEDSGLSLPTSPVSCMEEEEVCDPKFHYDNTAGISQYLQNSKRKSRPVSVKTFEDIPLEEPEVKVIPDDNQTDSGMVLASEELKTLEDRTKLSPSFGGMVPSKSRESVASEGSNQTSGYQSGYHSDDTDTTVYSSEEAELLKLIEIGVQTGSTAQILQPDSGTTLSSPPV

[3] = tested on: A431 cancer cells; test: A431 cytotoxicity (cell proliferation); format: cell-based, human; conditions: Homo sapiens, A-431
[4] = tested on: cellular microtubules in A-10 cells; test: Microtubule depolymerization, indirect immunofluorescence; format: cell-based; conditions: for effect on cellular microtubules: in words; for EC50: Rattus norvegicus, A10, A-10 cells, 18 h, read-out: EC50 for MT depolymerization in A-10 cells
[5] = tested on: MDA-435 cells; test: Antiproliferative SRB assay; format: cell-based; conditions: MDA435, 48 h, read-out: IC50 ± SD in MDA-435 cells
[6] = tested on: HeLa cells; test: Antiproliferative SRB assay; format: cell-based; conditions: Homo sapiens, HeLa, 48 h, read-out: IC50 ± SD in HeLa
[7] = tested on: WTβ3 cells (HeLa overexpressing βIII tubulin); test: Antiproliferative SRB assay; format: cell-based
[8] = tested on: SKOV3 cells; test: Antiproliferative SRB assay; format: cell-based; conditions: Homo sapiens, SK-OV-3, 48 h, read-out: IC50 ± SD in SKOV3 cells
[9] = tested on: EKVX; test: NCI 60 cell line panel; format: cell-based; conditions: Homo sapiens, NSCLC
[10] = tested on: HOP-62; test: NCI 60 cell line panel; format: cell-based; conditions: Homo sapiens, NSCLC
[11] = tested on: HOP-92; test: NCI 60 cell line panel; format: cell-based; conditions: Homo sapiens, NSCLC
[12] = tested on: NCI-H23; test: NCI 60 cell line panel; format: cell-based; conditions: Homo sapiens, NSCLC
[13] = tested on: NCI-H460; test: NCI 60 cell line panel; format: cell-based; conditions: Homo sapiens, NSCLC
[14] = tested on: NCI-H522; test: NCI 60 cell line panel; format: cell-based; conditions: Homo sapiens, NSCLC
[15] = tested on: SF-268; test: NCI 60 cell line panel; format: cell-based; conditions: Homo sapiens, CNS Cancer
[16] = tested on: SF-295; test: NCI 60 cell line panel; format: cell-based; conditions: Homo sapiens, CNS Cancer
[17] = tested on: SF-539; test: NCI 60 cell line panel; format: cell-based; conditions: Homo sapiens, CNS Cancer
[18] = tested on: SNB-19; test: NCI 60 cell line panel; format: cell-based; conditions: Homo sapiens, CNS Cancer
[19] = tested on: SNB-75; test: NCI 60 cell line panel; format: cell-based; conditions: Homo sapiens, CNS Cancer
[20] = tested on: U251; test: NCI 60 cell line panel; format: cell-based; conditions: Homo sapiens, U-251, CNS Cancer
[21] = tested on: IGROV1; test: NCI 60 cell line panel; format: cell-based; conditions: Homo sapiens, IGROV-1, Ovarian cancer
[22] = tested on: OVCAR-3; test: NCI 60 cell line panel; format: cell-based; conditions: Homo sapiens, Ovarian cancer
[23] = tested on: OVCAR-4; test: NCI 60 cell line panel; format: cell-based; conditions: Homo sapiens, Ovarian cancer
[24] = tested on: OVCAR-5; test: NCI 60 cell line panel; format: cell-based; conditions: Homo sapiens, Ovarian cancer
[25] = tested on: OVCAR-8; test: NCI 60 cell line panel; format: cell-based; conditions: Homo sapiens, Ovarian cancer
[26] = tested on: NCI/ADR-RES; test: NCI 60 cell line panel; format: cell-based; conditions: Homo sapiens, Ovarian cancer
[27] = tested on: SK-OV-3; test: NCI 60 cell line panel; format: cell-based; conditions: Homo sapiens, Ovarian cancer
[28] = tested on: LOX IMVI; test: NCI 60 cell line panel; format: cell-based; conditions: Homo sapiens, Melanoma
[29] = tested on: M14; test: NCI 60 cell line panel; format: cell-based; conditions: Homo sapiens, Melanoma
[30] = tested on: MDA-MB-435; test: NCI 60 cell line panel; format: cell-based; conditions: Homo sapiens, Melanoma
[31] = tested on: SK-MEL-2; test: NCI 60 cell line panel; format: cell-based; conditions: Homo sapiens
[32] = tested on: SK-MEL-5; test: NCI 60 cell line panel; format: cell-based; conditions: Homo sapiens, Melanoma
[33] = tested on: UACC-62; test: NCI 60 cell line panel; format: cell-based; conditions: Homo sapiens, Melanoma
[34] = tested on: 786-0; test: NCI 60 cell line panel; format: cell-based; conditions: Homo sapiens
[35] = tested on: ACHN; test: NCI 60 cell line panel; format: cell-based; conditions: Homo sapiens, Renal Cancer
[36] = tested on: CAKI-1; test: NCI 60 cell line panel; format: cell-based; conditions: Homo sapiens, Renal Cancer
[37] = tested on: RXF 393; test: NCI 60 cell line panel; format: cell-based; conditions: Homo sapiens, Renal Cancer
[38] = tested on: SN 12C; test: NCI 60 cell line panel; format: cell-based; conditions: Homo sapiens, SN12C, Renal Cancer
[39] = tested on: TK-10; test: NCI 60 cell line panel; format: cell-based; conditions: Homo sapiens, Renal Cancer
[40] = tested on: COLO 205; test: NCI 60 cell line panel; format: cell-based; conditions: Homo sapiens, Colon Cancer
[41] = tested on: HCT-116; test: NCI 60 cell line panel; format: cell-based; conditions: Homo sapiens, Colon Cancer
[42] = tested on: HCT-15; test: NCI 60 cell line panel; format: cell-based; conditions: Homo sapiens, Colon Cancer
[43] = tested on: HT29; test: NCI 60 cell line panel; format: cell-based; conditions: Homo sapiens, HT-29, Colon Cancer
[44] = tested on: KM12; test: NCI 60 cell line panel; format: cell-based; conditions: Homo sapiens, Colon Cancer
[45] = tested on: SW-620; test: NCI 60 cell line panel; format: cell-based; conditions: Homo sapiens, Colon Cancer
[46] = tested on: PC-3; test: NCI 60 cell line panel; format: cell-based; conditions: Homo sapiens, Prostate Cancer
[47] = tested on: DU-145; test: NCI 60 cell line panel; format: cell-based; conditions: Homo sapiens, Prostate Cancer
[48] = tested on: MCF7; test: NCI 60 cell line panel; format: cell-based; conditions: Homo sapiens, Breast Cancer
[49] = tested on: MDA-MB-231/ATCC; test: NCI 60 cell line panel; format: cell-based; conditions: Homo sapiens, Breast Cancer
[50] = tested on: HS 578T; test: NCI 60 cell line panel; format: cell-based; conditions: Homo sapiens, Breast Cancer
[51] = tested on: BT-549; test: NCI 60 cell line panel; format: cell-based; conditions: Homo sapiens
[52] = tested on: MDA-MB-468; test: NCI 60 cell line panel; format: cell-based; conditions: Homo sapiens, Breast Cancer
[53] = tested on: CCRF-CEM; test: NCI 60 cell line panel; format: cell-based; conditions: Homo sapiens, Leukemia
[54] = tested on: HL-60(TB); test: NCI 60 cell line panel; format: cell-based; conditions: Homo sapiens, Leukemia
[55] = tested on: K-562; test: NCI 60 cell line panel; format: cell-based; conditions: Homo sapiens, K562, Leukemia
[56] = tested on: MOLT-4; test: NCI 60 cell line panel; format: cell-based; conditions: Homo sapiens, Leukemia
[57] = tested on: SR; test: NCI 60 cell line panel; format: cell-based; conditions: Homo sapiens, Leukemia
[58] = tested on: M6/6 cells (SK-OV-3 expressing Pgp); test: Antiproliferative SRB assay; conditions: M6/6 (Pgp) vs SKOV3
[59] = target: PDGFR-β (Homo sapiens (Human), UniProt P09619); test: PDGFR-β kinase inhibition, phosphotyrosine ELISA cytoblot; format: cell-based; conditions: SH-SY5Y cells, phosphotyrosine ELISA
Sequence of PDGFR-β (P09619 33-1106): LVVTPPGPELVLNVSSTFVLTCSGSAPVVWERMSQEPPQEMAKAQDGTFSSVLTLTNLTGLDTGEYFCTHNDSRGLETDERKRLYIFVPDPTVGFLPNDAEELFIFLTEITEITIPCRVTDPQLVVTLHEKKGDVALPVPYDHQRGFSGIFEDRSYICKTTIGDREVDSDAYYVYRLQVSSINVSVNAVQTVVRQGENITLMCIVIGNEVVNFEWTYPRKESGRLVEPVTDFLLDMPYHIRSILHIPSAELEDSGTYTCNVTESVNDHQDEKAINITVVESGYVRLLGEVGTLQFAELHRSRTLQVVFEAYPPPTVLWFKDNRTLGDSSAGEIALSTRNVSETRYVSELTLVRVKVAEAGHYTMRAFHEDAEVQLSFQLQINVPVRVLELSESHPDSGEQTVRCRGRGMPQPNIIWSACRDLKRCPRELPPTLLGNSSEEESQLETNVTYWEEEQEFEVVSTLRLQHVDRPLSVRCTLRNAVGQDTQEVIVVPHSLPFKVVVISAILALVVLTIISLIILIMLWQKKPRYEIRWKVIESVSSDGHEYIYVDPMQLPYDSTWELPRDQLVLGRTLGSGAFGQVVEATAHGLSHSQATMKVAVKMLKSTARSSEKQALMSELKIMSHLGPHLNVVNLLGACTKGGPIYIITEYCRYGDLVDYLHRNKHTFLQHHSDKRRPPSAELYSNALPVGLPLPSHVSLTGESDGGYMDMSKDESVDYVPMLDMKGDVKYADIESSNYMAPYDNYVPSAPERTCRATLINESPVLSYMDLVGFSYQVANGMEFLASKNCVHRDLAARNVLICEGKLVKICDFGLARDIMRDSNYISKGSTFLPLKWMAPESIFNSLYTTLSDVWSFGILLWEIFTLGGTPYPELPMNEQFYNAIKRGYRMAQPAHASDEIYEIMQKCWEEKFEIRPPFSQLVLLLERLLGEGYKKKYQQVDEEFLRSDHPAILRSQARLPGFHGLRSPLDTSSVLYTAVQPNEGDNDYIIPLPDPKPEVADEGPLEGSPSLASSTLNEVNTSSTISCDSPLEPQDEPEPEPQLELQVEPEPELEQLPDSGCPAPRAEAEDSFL

[60] = tested on: chicken embryo chorioallantoic membrane; test: Chorioallantoic membrane (CAM) assay of angiogenesis; conditions: Gallus gallus, 48 h, read-out: CAM angiogenesis inhibition

Sequence of EGFR (P00533 25-1210): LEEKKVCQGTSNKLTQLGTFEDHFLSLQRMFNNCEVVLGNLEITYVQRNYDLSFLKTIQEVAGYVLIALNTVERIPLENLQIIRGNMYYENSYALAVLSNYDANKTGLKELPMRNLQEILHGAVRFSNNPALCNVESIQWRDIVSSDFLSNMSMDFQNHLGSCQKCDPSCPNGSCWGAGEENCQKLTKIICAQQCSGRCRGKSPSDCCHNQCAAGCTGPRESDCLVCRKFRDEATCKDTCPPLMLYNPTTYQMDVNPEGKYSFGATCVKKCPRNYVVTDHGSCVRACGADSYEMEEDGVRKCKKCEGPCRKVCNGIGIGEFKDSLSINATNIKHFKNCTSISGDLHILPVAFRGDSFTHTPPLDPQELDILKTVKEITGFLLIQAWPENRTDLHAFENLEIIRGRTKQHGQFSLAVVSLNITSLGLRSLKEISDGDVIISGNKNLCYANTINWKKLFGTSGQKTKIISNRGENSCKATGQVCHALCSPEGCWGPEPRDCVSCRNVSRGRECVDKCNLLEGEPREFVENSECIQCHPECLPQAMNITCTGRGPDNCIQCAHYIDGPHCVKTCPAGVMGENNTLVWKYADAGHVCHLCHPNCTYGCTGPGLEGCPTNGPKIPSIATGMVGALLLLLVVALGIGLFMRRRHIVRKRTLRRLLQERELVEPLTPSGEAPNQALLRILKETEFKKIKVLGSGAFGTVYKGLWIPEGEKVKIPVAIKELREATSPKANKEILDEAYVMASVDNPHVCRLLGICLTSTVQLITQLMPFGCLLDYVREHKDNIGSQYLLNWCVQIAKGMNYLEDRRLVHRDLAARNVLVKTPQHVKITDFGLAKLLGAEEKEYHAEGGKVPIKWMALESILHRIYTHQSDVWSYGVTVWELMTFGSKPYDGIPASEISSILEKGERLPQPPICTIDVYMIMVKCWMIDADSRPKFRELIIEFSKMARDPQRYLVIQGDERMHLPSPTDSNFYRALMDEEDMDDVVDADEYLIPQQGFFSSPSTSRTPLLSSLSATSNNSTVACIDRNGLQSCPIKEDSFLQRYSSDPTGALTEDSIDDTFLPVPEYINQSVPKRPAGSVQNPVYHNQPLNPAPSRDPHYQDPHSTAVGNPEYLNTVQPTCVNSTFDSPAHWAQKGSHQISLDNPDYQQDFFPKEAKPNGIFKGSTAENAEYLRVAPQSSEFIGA

IC50 [1]: 0.226 ± 0.0502 µM
IC50 [2]: 0.0067 ± 0.00081 µM
IC50 [6]: 0.105 ± 0.0058 µM
IC50 ([7]; Homo sapiens, HeLa, SRB, 48 h, read-out: IC50 ± SD in WTβ3): 0.094 ± 0.007 µM
IC50 [8]: 0.12 ± 0.005 µM
Compound: Cc1nc(N(C)c2ccc3c(c2)CCO3)c2cc(C)oc2n1 [Compound 6, N-(2,3-dihydro-1-benzofuran-5-yl)-N,2,6-trimethylfuro[2,3-d]pyrimidin-4-amine]
IC50 [3]: 0.0383 ± 0.0042 µM
effect on cellular microtubules [4]: dose-dependent loss of cellular microtubules
IC50 [5]: 0.0962 ± 0.013 µM
Rr value (relative resistance) ([7]; WTβ3 vs HeLa): 0.9
GI50 [9]: 0.07 µM
GI50 [10]: 0.0396 µM
GI50 [11]: 0.0458 µM
GI50 [12]: 0.0439 µM
GI50 [13]: 0.042 µM
GI50 [14]: 0.0129 µM
GI50 [15]: 0.0139 µM
GI50 [16]: 0.0305 µM
GI50 [17]: 0.0316 µM
GI50 [18]: 0.0565 µM
GI50 [19]: 0.0304 µM
GI50 [20]: 0.0397 µM
GI50 [21]: 0.0629 µM
GI50 [22]: 0.0245 µM
GI50 [23]: 0.0834 µM
GI50 [24]: 0.262 µM
GI50 [25]: 0.063 µM
GI50 [26]: 0.0265 µM
GI50 [27]: 0.0376 µM
GI50 [28]: 0.0456 µM
GI50 [29]: 0.0348 µM
GI50 [30]: 0.014 µM
GI50 [31]: 0.0264 µM
GI50 [32]: 0.0314 µM
GI50 [33]: 0.0613 µM
GI50 [34]: 0.0804 µM
GI50 [35]: 0.0642 µM
GI50 [36]: 0.0401 µM
GI50 [37]: 0.0212 µM
GI50 [38]: 0.0972 µM
GI50 [39]: 0.0502 µM
GI50 [40]: 0.0403 µM
GI50 [41]: 0.0451 µM
GI50 [42]: 0.0389 µM
GI50 [43]: 0.0324 µM
GI50 [44]: 0.0401 µM
GI50 [45]: 0.0416 µM
GI50 [46]: 0.0522 µM
GI50 [47]: 0.0441 µM
GI50 [48]: 0.0402 µM
GI50 [49]: 0.148 µM
GI50 [50]: 0.031 µM
GI50 [51]: 0.0772 µM
GI50 [52]: 0.0221 µM
GI50 [53]: 0.0581 µM
GI50 [54]: 0.0276 µM
GI50 [55]: 0.0317 µM
GI50 [56]: 0.0767 µM
GI50 [57]: 0.0366 µM
Rr value (relative resistance) [58]: 1.3

IC50 [1]: 0.103 ± 0.0182 µM
IC50 [2]: 0.0209 ± 0.0037 µM
IC50 [59]: 0.0732 ± 0.0049 µM
EC50 [4]: > 10 µM
Compound: COc1ccc2c(c1)CCN2c1nc(C)nc2oc(C)cc12 [Compound 8, 4-(5-methoxyindolin-1-yl)-2,6-dimethylfuro[2,3-d]pyrimidine]
IC50 [3]: 0.0422 ± 0.005 µM
effect on cellular microtubules [4]: no effect on cellular microtubules

EC50 [4]: > 10 µM
Compound: COc1ccc2c(ccn2-c2nc(C)nc3oc(C)cc23)c1 [Compound 9, 4-(5-methoxy-1H-indol-1-yl)-2,6-dimethylfuro[2,3-d]pyrimidine]
IC50 [3]: > 0.3 µM
IC50 [60]: > 300 µM
